The values that follow come from PubChem BioAssay AID328 (DTP/NCI, 2004).

The experiment deals with BDF1 mice, P388 leukemia ip, median survival T/C. As to the kind of experiment: NCI In Vivo Anticancer Drug Screen. Data for tumor model P388 Leukemia (intraperitoneal) in B6D2F1 (BDF1) mice. The settings on record: endpoint: median survival time, higher = longer survival. The essentials:
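Each value expresses how treatment altered survival: treated-mouse outcome over vehicle-mouse outcome, both groups bearing the transplanted tumour.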

The mark [1] stands for this setting: dose: 100.0 mg/kg/injection, schedule: Q04DX003 (ip), vehicle: saline with Tween-80.
[2] abbreviates: dose: 200.0 mg/kg/injection, schedule: Q04DX003 (ip), vehicle: saline with Tween-80.
Where [3] appears, read: dose: 400.0 mg/kg/injection, schedule: Q04DX003 (ip), vehicle: saline with Tween-80.
Where [4] appears, read: dose: 50.0 mg/kg/injection, schedule: Q01DX009 (ip), vehicle: saline with Tween-80.
The mark [5] stands for this setting: dose: 50.0 mg/kg/injection, schedule: Q04DX003 (ip), vehicle: saline with Tween-80.
Setting [6] is: dose: 100.0 mg/kg/injection, schedule: Q01DX009 (ip), vehicle: saline with Tween-80.

Structures are written as SMILES. Where “and” joins values, the source holds several entries; their conditions need not be identical. Equal entries are not always repeated. Toxic doses and inconclusive results are not listed.

As to `CC(=O)OCC1OC(=O)C(C)N(C)C(=O)CN(C)C(=O)C2C(=O)CC(C)N2C(=O)C(C(C)C)NC(=O)C1NC(=O)c1c2nc3c(C(=O)NC4C(=O)NC(C(C)C)C(=O)N5C(C)CC(OC(C)=O)C5C(=O)N(C)CC(=O)N(C)C(C(C)C)C(=O)OC4C)ccc(C)c3oc-2c(C)c(=O)c1N` (centres undefined), the T/C was 154 % of control (dose: 0.05 mg/kg/injection, schedule: Q01DX009 (ip), vehicle: saline with Tween-80); 156 % of control (dose: 0.1 mg/kg/injection, schedule: Q01DX009 (ip), vehicle: saline with Tween-80); 189 % of control (dose: 0.2 mg/kg/injection, schedule: Q01DX009 (ip), vehicle: saline with Tween-80); 153 % of control (dose: 0.4 mg/kg/injection, schedule: Q01DX001 (ip), vehicle: saline with Tween-80); 213 % of control (dose: 0.4 mg/kg/injection, schedule: Q01DX009 (ip), vehicle: saline with Tween-80); 159 % of control (dose: 0.6 mg/kg/injection, schedule: Q04DX003 (ip), vehicle: saline with Tween-80). Also, the T/C is 159 % of control (dose: 0.8 mg/kg/injection, schedule: Q01DX001 (ip), vehicle: saline with Tween-80); 117 % of control (dose: 0.8 mg/kg/injection, schedule: Q01DX009 (ip), vehicle: saline with Tween-80); 189 % of control (dose: 1.2 mg/kg/injection, schedule: Q04DX003 (ip), vehicle: saline with Tween-80); 159 % of control (dose: 1.6 mg/kg/injection, schedule: Q01DX001 (ip), vehicle: saline with Tween-80); 117 % of control (dose: 2.4 mg/kg/injection, schedule: Q04DX003 (ip), vehicle: saline with Tween-80); 189 % of control (dose: 3.2 mg/kg/injection, schedule: Q01DX001 (ip), vehicle: saline with Tween-80).

On to `Cn1c2ccccc2c2c3c(ccc21)C(=O)C=CC3=O`, for which the T/C was 113 % of control under setting [1], 102 % of control under setting [2] and 121 % of control under setting [3].

On to `CCOC(=O)C(=CNc1ccccc1OC)C(=O)OCC`, for which the T/C (dose: 1.56 mg/kg/injection, schedule: Q01DX009 (ip), vehicle: saline with Tween-80) is 112 % of control; the T/C (dose: 3.12 mg/kg/injection, schedule: Q01DX009 (ip), vehicle: saline with Tween-80) is 104 % of control; the T/C (dose: 6.25 mg/kg/injection, schedule: Q01DX009 (ip), vehicle: saline with Tween-80) is 102 % of control; the T/C (dose: 12.5 mg/kg/injection, schedule: Q01DX009 (ip), vehicle: saline with Tween-80) was 102 % of control and 116 % of control; the T/C (dose: 25.0 mg/kg/injection, schedule: Q01DX009 (ip), vehicle: saline with Tween-80) is 98 % of control and 123 % of control; the T/C under setting [4] is 100 % of control and 116 % of control and 121 % of control. Also, the T/C is, setting by setting: under setting [5], 99 % of control; under setting [6], 102 % of control and 114 % of control; under setting [1], 96 % of control; (dose: 200.0 mg/kg/injection, schedule: Q01DX009 (ip), vehicle: saline with Tween-80) 109 % of control; under setting [2], 96 % of control; (dose: 400.0 mg/kg/injection, schedule: Q01DX009 (ip), vehicle: saline with Tween-80) 106 % of control. Besides, the T/C under setting [3] was 96 % of control.

Take `CC(=O)NNC(=O)c1ccncc1`: the T/C is 100 % of control (dose: 100.0 mg/kg/injection, schedule: Q04DX003 (ip), vehicle: saline); 118 % of control (dose: 200.0 mg/kg/injection, schedule: Q04DX003 (ip), vehicle: saline); 100 % of control (dose: 400.0 mg/kg/injection, schedule: Q04DX003 (ip), vehicle: saline).

In the case of `CCOC(=O)C1=C(C)NC(C)=C(C(=O)OCC)C1`, the T/C by setting is: (dose: 100.0 mg/kg/injection, schedule: Q01DX001 (ip), vehicle: saline with Tween-80) 90 % of control; (dose: 200.0 mg/kg/injection, schedule: Q01DX001 (ip), vehicle: saline with Tween-80) 95 % of control; (dose: 400.0 mg/kg/injection, schedule: Q01DX001 (ip), vehicle: saline with Tween-80) 100 % of control.

Regarding `COc1cccc2c1C(=O)c1c(O)c3c(c(O)c1C2=O)C[C@@](O)(/C(C)=N/NC(=O)c1cccc([N+](=O)[O-])c1)C[C@@H]3OC1CC(N)C(O)C(C)O1` (some centres undefined), the T/C reads like this: (dose: 0.25 mg/kg/injection, schedule: Q01DX009 (ip), vehicle: water) 152 % of control; (dose: 0.5 mg/kg/injection, schedule: Q01DX009 (ip), vehicle: water) 163 % of control; (dose: 1.0 mg/kg/injection, schedule: Q01DX009 (ip), vehicle: water) 166 % of control and 191 % of control; (dose: 2.0 mg/kg/injection, schedule: Q01DX009 (ip), vehicle: water) 156 % of control and 214 % of control; (dose: 4.0 mg/kg/injection, schedule: Q01DX009 (ip), vehicle: water) 244 % of control and 184 % of control; (dose: 8.0 mg/kg/injection, schedule: Q01DX009 (ip), vehicle: water) 169 % of control.

For the molecule `CO/N=C/c1ccc([N+](=O)[O-])s1`, the T/C is 118 % of control (dose: 12.0 mg/kg/injection, schedule: Q04DX003 (ip), vehicle: Klucel (hydroxypropylcellulose) (HPC)); 100 % of control (dose: 25.0 mg/kg/injection, schedule: Q01DX009 (ip), vehicle: Klucel (hydroxypropylcellulose) (HPC)); 113 % of control (dose: 25.0 mg/kg/injection, schedule: Q04DX003 (ip), vehicle: Klucel (hydroxypropylcellulose) (HPC)); 108 % of control (dose: 50.0 mg/kg/injection, schedule: Q01DX009 (ip), vehicle: Klucel (hydroxypropylcellulose) (HPC)); 104 % of control (dose: 50.0 mg/kg/injection, schedule: Q04DX003 (ip), vehicle: Klucel (hydroxypropylcellulose) (HPC)); 108 % of control (dose: 100.0 mg/kg/injection, schedule: Q01DX009 (ip), vehicle: Klucel (hydroxypropylcellulose) (HPC)).

As to `CC(=O)Oc1ccc(OC(C)=O)c2c1C(=O)C=CC2=O`, the T/C reads like this: (dose: 0.09 mg/kg/injection, schedule: Q01DX009 (ip), vehicle: Klucel (hydroxypropylcellulose) (HPC)) 97 % of control; (dose: 0.18 mg/kg/injection, schedule: Q01DX009 (ip), vehicle: Klucel (hydroxypropylcellulose) (HPC)) 97 % of control; (dose: 0.37 mg/kg/injection, schedule: Q01DX009 (ip), vehicle: Klucel (hydroxypropylcellulose) (HPC)) 112 % of control; (dose: 0.75 mg/kg/injection, schedule: Q01DX009 (ip), vehicle: Klucel (hydroxypropylcellulose) (HPC)) 118 % of control; (dose: 1.5 mg/kg/injection, schedule: Q01DX009 (ip), vehicle: Klucel (hydroxypropylcellulose) (HPC)) 93 % of control and 98 % of control; (dose: 3.0 mg/kg/injection, schedule: Q01DX009 (ip), vehicle: Klucel (hydroxypropylcellulose) (HPC)) 95 % of control. For the same molecule, the T/C (dose: 6.25 mg/kg/injection, schedule: Q01DX009 (ip), vehicle: Klucel (hydroxypropylcellulose) (HPC)) was 91 % of control.

As to `CC(C)(C)NCc1cc(C(C)(C)C)cc(-c2ccc(Cl)cc2)c1O`, the T/C by setting is: under setting [4], 99 % of control; under setting [6], 102 % of control.

As to `COc1cc2c(cc1OC)-c1cc3cc(OC)c(OC)cc3c(CCC(=O)O)[n+]1CC2` (tested in a mixture with another compound), the T/C by setting is: (dose: 100.0 mg/kg/injection, schedule: Q01DX009 (ip), vehicle: saline) 106 % of control; (dose: 200.0 mg/kg/injection, schedule: Q01DX009 (ip), vehicle: saline) 92 % of control; (dose: 400.0 mg/kg/injection, schedule: Q01DX009 (ip), vehicle: saline) 90 % of control.

With `c1ccc2c(c1)Cc1c(NC3=NCCO3)cccc1-2`, the T/C reads like this: under setting [5], 95 % of control; under setting [1], 95 % of control; under setting [2], 108 % of control; under setting [3], 100 % of control.

Turning to `O=C1c2ccccc2C(=O)N1CCC[P+](c1ccccc1)(c1ccccc1)c1ccccc1`, the T/C reads like this: (dose: 1.56 mg/kg/injection, schedule: Q01DX009 (ip), vehicle: Klucel (hydroxypropylcellulose) (HPC)) 102 % of control; (dose: 12.5 mg/kg/injection, schedule: Q01DX009 (ip), vehicle: Klucel (hydroxypropylcellulose) (HPC)) 151 % of control.

As for `CCCC1CC[N-]CC1.CCCC1CC[N-]CC1.[Cl][Pt+2]([Cl])([Cl])[Cl]`, the T/C is, setting by setting: (dose: 25.0 mg/kg/injection, schedule: Q04DX003 (ip), vehicle: saline) 122 % of control; (dose: 33.0 mg/kg/injection, schedule: Q04DX003 (ip), vehicle: saline with Tween-80) 150 % of control; (dose: 37.5 mg/kg/injection, schedule: Q04DX003 (ip), vehicle: saline with Tween-80) 118 % of control; under setting [4], 110 % of control; under setting [5], 160 % of control.
